CC12CCC(CC1=O)C2(C)C (stereo not drawn)
Settings	solubility (mole fraction)
in acetone, 303.15 K	0.553
in acetone, 308.15 K	0.571
in acetone, 313.55 K	0.594
in acetone, 319.25 K	0.614
in acetone, 323.15 K	0.627
in ethanol, 303.15 K	0.365
in ethanol, 308.15 K	0.396
in ethanol, 313.15 K	0.412
in ethanol, 318.15 K	0.451
in ethanol, 322.95 K	0.508
in ethanol, 327.95 K	0.538
in ethanol, 333.35 K	0.588
in ethanol, 338.15 K	0.63
in ethanol, 343.15 K	0.699
in p-cymene, 303.85 K	0.58
in p-cymene, 308.05 K	0.589
in p-cymene, 313.15 K	0.601
in p-cymene, 317.95 K	0.609
in p-cymene, 323.65 K	0.624
in p-cymene, 328.15 K	0.631
in p-cymene, 333.35 K	0.641
in p-cymene, 337.95 K	0.652
in p-cymene, 343.05 K	0.664
in p-xylene, 303.05 K	0.6
in p-xylene, 308.15 K	0.637
in p-xylene, 313.15 K	0.66
in p-xylene, 318.15 K	0.683
in p-xylene, 323.25 K	0.714
in p-xylene, 327.85 K	0.736
in p-xylene, 328.15 K	0.739
in p-xylene, 333.15 K	0.77
in p-xylene, 338.35 K	0.795
in p-xylene, 343.15 K	0.824

Reference: BigSolDB 2.1
